In patent US20250170266A1 (ZYMEWORKS BC INC., priority 2022, published 2025):
Like-named read-outs stand apart in the source and are kept apart here.

What was measured:
Assay type in all cases: cell-based
hTLR7 = biological target: T1, hTLR7 (Homo sapiens, UniProt Q9NYK1); experiment: Reporter Gene Assay (RGA), HEK-Blue hTLR7 reporter cells, SEAP readout; conditions: overnight incubation, SEAP absorbance 620 nm
T1 construct: host or cells: HEK-Blue hTLR7 reporter cells (HEK293-derived, own knowledge)
T1 sequence (Q9NYK1 27-1049): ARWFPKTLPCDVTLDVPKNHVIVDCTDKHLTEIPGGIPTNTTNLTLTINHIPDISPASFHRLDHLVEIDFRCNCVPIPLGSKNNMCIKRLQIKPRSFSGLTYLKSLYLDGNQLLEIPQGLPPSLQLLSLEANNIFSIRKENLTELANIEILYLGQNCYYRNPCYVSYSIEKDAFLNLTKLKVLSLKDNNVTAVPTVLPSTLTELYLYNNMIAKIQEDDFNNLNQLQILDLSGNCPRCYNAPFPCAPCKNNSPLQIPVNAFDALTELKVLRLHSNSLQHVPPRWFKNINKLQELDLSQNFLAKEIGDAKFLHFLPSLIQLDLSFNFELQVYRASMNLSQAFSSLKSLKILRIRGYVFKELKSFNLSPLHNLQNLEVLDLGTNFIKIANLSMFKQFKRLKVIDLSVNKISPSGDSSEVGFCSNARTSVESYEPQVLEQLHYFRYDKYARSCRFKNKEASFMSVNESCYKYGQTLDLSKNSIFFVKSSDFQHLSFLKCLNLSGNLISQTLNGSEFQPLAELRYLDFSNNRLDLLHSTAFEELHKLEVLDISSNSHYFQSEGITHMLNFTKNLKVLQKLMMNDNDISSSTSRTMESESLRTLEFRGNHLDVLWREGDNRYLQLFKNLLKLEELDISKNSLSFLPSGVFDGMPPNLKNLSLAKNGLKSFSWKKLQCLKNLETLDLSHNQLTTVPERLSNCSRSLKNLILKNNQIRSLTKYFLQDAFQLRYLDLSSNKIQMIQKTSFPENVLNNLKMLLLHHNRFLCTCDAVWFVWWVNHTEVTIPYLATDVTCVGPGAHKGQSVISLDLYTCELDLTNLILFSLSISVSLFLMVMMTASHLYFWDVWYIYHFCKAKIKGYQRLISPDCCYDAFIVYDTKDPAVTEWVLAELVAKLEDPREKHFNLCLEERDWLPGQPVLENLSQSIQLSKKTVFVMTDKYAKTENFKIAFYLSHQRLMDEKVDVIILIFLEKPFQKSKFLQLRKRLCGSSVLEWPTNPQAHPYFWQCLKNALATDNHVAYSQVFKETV
Experimental: (§1) 1.5×10^4 HEK-Blue™ hTLR7 (Invivogen, San Diego, CA) or HEK-Blue™ mTLR7 (Invivogen, San Diego, CA) reporter cells were treated with a titration series of test compound (4-fold titration from […], 11 points). Compounds were initially diluted to 1 mM in DMSO and subsequently serial-diluted in assay media (HEK-Blue™ Detection; Invivogen, San Diego, CA). Cells with test compound were incubated overnight at 37° C.+5% CO2, and the amount of secreted embryonic alkaline phosphatase (SEAP) was determined by measuring absorbance (620 nm) using a Synergy™ H1 microplate reader.
(§2) Each assay included a positive control compound (referred to herein as “benchmark,” see, e.g., TABLE 3 below, and taken from International Patent Publication No. WO2017/072662, structure shown below) and a negative control (growth medium). […] The structure of the benchmark compound from International Patent Publication No. WO 2017/072662 is as follows: […]

mTLR7 = biological target: T2, mTLR7 (Mus musculus, UniProt P58681); experiment: Reporter Gene Assay (RGA), HEK-Blue mTLR7 reporter cells, SEAP readout; conditions: overnight incubation, SEAP absorbance 620 nm
T2 construct: host or cells: HEK-Blue mTLR7 reporter cells (HEK293-derived, own knowledge)
T2 sequence (P58681 27-1050): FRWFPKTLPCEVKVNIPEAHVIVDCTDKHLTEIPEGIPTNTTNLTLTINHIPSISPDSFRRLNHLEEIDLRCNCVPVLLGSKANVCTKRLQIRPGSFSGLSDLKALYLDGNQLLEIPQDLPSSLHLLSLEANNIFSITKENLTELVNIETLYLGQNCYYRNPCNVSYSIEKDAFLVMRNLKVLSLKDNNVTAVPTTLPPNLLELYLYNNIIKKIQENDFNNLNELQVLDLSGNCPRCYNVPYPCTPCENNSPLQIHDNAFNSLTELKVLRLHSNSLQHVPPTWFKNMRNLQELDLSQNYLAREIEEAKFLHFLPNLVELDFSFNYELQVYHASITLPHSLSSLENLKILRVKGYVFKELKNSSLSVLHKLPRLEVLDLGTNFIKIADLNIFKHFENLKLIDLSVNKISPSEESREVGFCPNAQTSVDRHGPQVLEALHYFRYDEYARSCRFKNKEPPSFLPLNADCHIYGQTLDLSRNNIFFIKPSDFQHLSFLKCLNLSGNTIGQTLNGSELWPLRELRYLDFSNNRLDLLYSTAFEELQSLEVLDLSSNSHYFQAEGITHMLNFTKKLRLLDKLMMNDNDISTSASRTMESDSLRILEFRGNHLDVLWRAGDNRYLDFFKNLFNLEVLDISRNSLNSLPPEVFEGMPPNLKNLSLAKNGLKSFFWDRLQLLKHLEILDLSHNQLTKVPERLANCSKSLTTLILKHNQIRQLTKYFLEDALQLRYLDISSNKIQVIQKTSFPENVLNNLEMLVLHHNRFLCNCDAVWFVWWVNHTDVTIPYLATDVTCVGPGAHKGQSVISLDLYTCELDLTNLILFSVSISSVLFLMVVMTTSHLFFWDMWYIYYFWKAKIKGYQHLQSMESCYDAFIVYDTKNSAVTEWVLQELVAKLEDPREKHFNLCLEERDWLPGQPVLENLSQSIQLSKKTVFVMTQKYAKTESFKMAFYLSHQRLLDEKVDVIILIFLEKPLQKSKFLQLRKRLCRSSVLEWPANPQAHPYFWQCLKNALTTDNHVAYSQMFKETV
Experimental: as §1, §2

[1] = test system: Human peripheral blood mononuclear cells (PBMCs); experiment: Human PBMC Assay, cytokine release (HTRF); conditions: PBMC, 24 hours
Excerpt: Human peripheral blood mononuclear cells (PBMCs) were isolated from fresh Leukopak using magnetic separation. Briefly, erythrocytes and granulocytes were magnetically labeled with Erythrocyte Depletion MicroBeads (Miltenyi Biotec) and Granulocyte Depletion MicroBeads (Miltenyi Biotec), respectively. The cell suspension was loaded onto a Multi-24 Column Block (Miltenyi Biotec) and placed in the magnetic field of a MultiMACS Cell24 Separator Plus (Miltenyi Biotec). The unlabelled PBMCs were collected in the run through. PBMCs were resuspended in CryoStor® CS10 ([…]) and frozen. On the day before the assay, PBMCs were thawed in warm assay buffer (RPMI+10% FBS) and resuspended in assay buffer+10 ng/ml hIL3 (R&D Systems). Cells were rested at 37° C.+5% CO2 overnight. The following day, cells were spun down and resuspended in fresh assay buffer. 300,000 cells were added to each well of plates containing test compound. For test compound preparation, each compound was initially diluted to 1 mM in DMSO and further diluted in assay buffer. A 4-fold 11-point titration starting from 15 μM was performed. Cells were incubated with test compound at 37° C.+5% CO2 for 24 hours before supernatant was harvested. Human interleukin 6 (hIL6), human tumor necrosis factor alpha (hTNFα), and human interferon alpha (hIFNα) were quantified in the supernatant using homogeneous time resolved fluorescence (Cisbio).
as §2

[2] = hIFNα in supernatant, EC50 values approximated and divided into groups, read-out: PBMC IFNa EC50

Row | Compound | EC50 (hTLR7) [µM] | EC50 (mTLR7) [µM] | EC50 [1, 2] [µM] | EC50 ([1]; hIL6 in supernatant, read-out: PBMC IL6 EC50) [µM]
1 | CCOc1nc(N)c2nc(O)n(Cc3ccc(CNC4CCNC4)cc3OC)c2n1 (stereo in doubt) [Compound 133, (S)-6-amino-2-ethoxy-9-(2-methoxy-4-((pyrrolidin-3-ylamino)methyl)benzyl)-9H-purin-8-ol] | 0.178 | 0.859 | > 0.01 | 
2 | CCOc1nc(N)c2nc(O)n(Cc3ccc(CNC4CNC4)cc3OC)c2n1 [Compound 129, 6-amino-9-(4-((azetidin-3-ylamino)methyl)-2-methoxybenzyl)-2-ethoxy-9H-purin-8-ol] | 0.0811 | 0.541 | > 0.01 | 
3 | CCOc1nc(N)c2nc(O)n(Cc3ccc(CN4CCN(C(=O)CCOCCOCCOCCNC(=O)CC(SC[C@@H](N)C(=O)O)C(=O)O)CC4)cc3OC)c2n1 (stereo partly drawn) [Compound 149, (19S)-19-amino-1-(4-(4-((6-amino-2-ethoxy-8-hydroxy-9H-purin-9-yl)methyl)-3-methoxybenzyl)piperazin-1-yl)-16-carboxy-1,14-dioxo-4,7,10-trioxa-17-thia-13-azaicosan-20-oic Acid] | 0.52 | 1.26 | > 0.01 | 
4 | CCCCOc1nc(N)c2nc(O)n(Cc3ccc(CNCc4ccccc4)cc3OC)c2n1 [Compound 165, 6-amino-9-(4-((benzylamino)methyl)-2-methoxybenzyl)-2-butoxy-9H-purin-8-ol] | < 0.0001 | < 0.0001 | < 0.0001 | 6.99
5 | CCCCOc1nc(N)c2nc(O)n(Cc3ccc(CCN4CCC5(CCNCC5)CC4)cc3OC)c2n1 [Compound 177, 9-(4-(2-(3,9-diazaspiro[5.5]undecan-3-yl)ethyl)-2-methoxybenzyl)-6-amino-2-butoxy-9H-purin-8-ol] | 0.411 | 15.5 | > 0.01 | 
6 | CCCCOc1nc(N)c2nc(O)n(Cc3ccc(CCNC4CCNCC4)cc3OC)c2n1 [Compound 179, 6-amino-2-butoxy-9-(2-methoxy-4-(2-(piperidin-4-ylamino)ethyl)benzyl)-9H-purin-8-ol] | 0.181 | 0.421 | > 0.01 | 

The next lines start with results.

Row | EC50 (hTLR7) [µM] | EC50 (mTLR7) [µM] | Compound | EC50 [1, 2] [µM] | EC50 ([1]; hIL6 in supernatant, read-out: PBMC IL6 EC50) [µM]
7 | 0.027 | 0.0954 | CCCCCNc1nc(N)nc2ccn(Cc3ccc(CN4CCN(CCNC(=O)CC(SC[C@@H](N)C(=O)O)C(=O)O)CC4)cc3OC)c12 (stereo partly drawn) [Benchmark, reference compound] |  | 
8 | 0.033 | 0.659 | CCOc1nc(N)c2nc(O)n(Cc3ccc(CNC/C=C/CN)cc3OC)c2n1 [Compound 126, (E)-6-amino-9-(4-(((4-aminobut-2-en-1-yl)amino)methyl)-2-methoxybenzyl)-2-ethoxy-9H-purin-8-ol] | > 0.01 | 
9 | 0.175 | 1.03 | CCOc1nc(N)c2nc(O)n(Cc3ccc(CNC4CCCNC4)cc3OC)c2n1 (stereo not drawn) [Compound 127, 6-amino-2-ethoxy-9-(2-methoxy-4-((piperidin-3-ylamino)methyl)benzyl)-9H-purin-8-ol] | > 0.01 | 
10 | 0.202 | 1.27 | CCOc1nc(N)c2nc(O)n(Cc3ccc(CNC4CC5(CNC5)C4)cc3OC)c2n1 [Compound 130, 9-(4-(((2-azaspiro[3.3]heptan-6-yl)amino)methyl)-2-methoxybenzyl)-6-amino-2-ethoxy-9H-purin-8-ol] | > 0.01 | 
11 | 0.0861 | 0.676 | CCOc1nc(N)c2nc(O)n(Cc3ccc(CNCCCN4CCNCC4)cc3OC)c2n1 [Compound 131, 6-amino-2-ethoxy-9-(2-methoxy-4-(((3-(piperazin-1-yl)propyl)amino)methyl)-benzyl)-9H-purin-8-ol] | > 0.01 | 
12 | 0.363 | 1.65 | CCOc1nc(N)c2nc(O)n(Cc3ccc(CNCCN4CCNCC4)cc3OC)c2n1 [Compound 134, 6-amino-2-ethoxy-9-(2-methoxy-4-(((2-(piperazin-1-yl)ethyl)amino)methyl)-benzyl)-9H-purin-8-ol] | > 0.01 | 
13 | 0.223 | 1.71 | CCOc1nc(N)c2nc(O)n(Cc3ccc(CNCC(O)CN4CCOCC4)cc3OC)c2n1 (stereo not drawn) [Compound 136, 6-amino-2-ethoxy-9-(4-(((2-hydroxy-3-morpholinopropyl)amino)methyl)-2-methoxybenzyl)-9H-purin-8-ol] | > 0.01 | 
14 | 0.167 | 1.26 | CCOc1nc(N)c2nc(O)n(Cc3ccc(CN4CCN(C(=O)CCCCCNC(=O)CC(SC[C@@H](N)C(=O)O)C(=O)O)CC4)cc3OC)c2n1 (stereo partly drawn) [Compound 148, 2-(((S)-2-amino-2-carboxyethyl)thio)-4-((6-(4-(4-((6-amino-2-ethoxy-8-hydroxy-9H-purin-9-yl)methyl)-3-methoxybenzyl)piperazin-1-yl)-6-oxohexyl)amino)-4-oxobutanoic Acid] | > 0.01 | 
